Measured values: US9139567B2, “Arylpyrazole ethers as inhibitors of leukotriene A4 hydrolase” (Boehringer Ingelheim International GmbH, priority 2011, dated 2015)

Tests used:
human LTA4 hydrolase = molecular target: T1, human LTA4 hydrolase (Homo sapiens, UniProt P09960); assay: LTA4H enzyme assay (cleavage of Arg-AMC, fluorescence); format: biochemical; conditions: LTA4H enzyme 1 nM, Arg-AMC substrate 50 μM, room temperature 1 h
T1 sequence (P09960 1-611): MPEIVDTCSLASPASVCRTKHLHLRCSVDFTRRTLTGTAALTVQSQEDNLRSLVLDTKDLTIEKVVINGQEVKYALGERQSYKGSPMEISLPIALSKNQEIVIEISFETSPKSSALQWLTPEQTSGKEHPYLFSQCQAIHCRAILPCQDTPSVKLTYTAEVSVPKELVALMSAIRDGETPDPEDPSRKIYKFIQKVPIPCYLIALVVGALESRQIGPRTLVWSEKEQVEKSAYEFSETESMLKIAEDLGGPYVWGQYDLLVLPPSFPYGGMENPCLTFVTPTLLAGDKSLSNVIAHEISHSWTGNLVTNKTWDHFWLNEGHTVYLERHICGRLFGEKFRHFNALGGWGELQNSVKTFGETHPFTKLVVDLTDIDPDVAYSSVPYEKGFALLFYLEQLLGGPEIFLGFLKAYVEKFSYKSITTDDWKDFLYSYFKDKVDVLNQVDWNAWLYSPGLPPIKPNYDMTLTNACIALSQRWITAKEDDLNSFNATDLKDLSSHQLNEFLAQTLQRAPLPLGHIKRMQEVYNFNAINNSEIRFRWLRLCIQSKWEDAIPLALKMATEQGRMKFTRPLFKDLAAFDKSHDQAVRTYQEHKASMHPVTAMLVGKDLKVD
Method: Compounds are assessed for the ability to interact with human LTA4 hydrolase in an enzymatic assay that measures the ability of the enzyme to cleave the peptide bond of arginyl-aminomethylcoumarin (Arg-AMC). LTA4H Enzyme (1 nM final), Arg-AMC substrate (50 μM final), and compound are combined in a reaction buffer (50 mM Tris-HCl (pH 7.5), 100 mM KCl, 0.5% bovine serum albumin) at room temperature for 1 h. The formation of product is assessed by measuring the fluorescence of aminomethylcoumarin product (excitation wavelength 380 nm/emission wavelength 460 nm).

[1] = test system: LTB4 production in human whole blood; assay: LTB4 production inhibition assay in human whole blood (calcimycin-stimulated); format: cell-based; conditions: heparinized human whole blood, 15 min 37° C., calcimycin 20 μM 30 min, plasma LTB4 by HTRF
Method: Compounds of the invention are additionally tested in a human whole blood assay to determine their ability to inhibit the synthesis of LTB4 in a cellular system. Compounds are combined with heparinized human whole blood and incubated for 15 minutes at 37° C. Calcimycin (20 μM final, prepared in phosphate-buffered saline, pH 7.4) is then added and the mixture is incubated for another 30 minutes at 37° C. The samples are centrifuged for 5 min at low speed (1500×g) and the plasma layer is removed. Plasma LTB4 concentrations are then measured using an antibody-based homogenous time-resolved fluorescence method (CisBio, Bedford, Mass.).

Structure (SMILES) | IC50 (human LTA4 hydrolase) | IC50 [1]
c1cc(-c2ccc(Oc3ccc(OCc4cn5ccsc5n4)cc3)cc2)[nH]n1 [Example 36, 6-({4-[4-(1H-pyrazol-5-yl)phenoxy]phenoxy}methyl)imidazo[2,1-b][1,3]thiazole] | 0.006 µM | 4.5 µM
c1cc(-c2ccc(Oc3ccc(OCc4cscn4)cc3)cc2)[nH]n1 [Example 38, 4-{4-[4-(2H-Pyrazol-3-yl)-phenoxy]-phenoxymethyl}-thiazole] | 0.0033 µM | ≥ 5 µM
c1cc(-c2ccc(Oc3ccc(OCc4cnc5[nH]ccc5c4)cc3)cc2)[nH]n1 [Example 39, 5-({4-[4-(1H-pyrazol-5-yl)phenoxy]phenoxy}methyl)-1H-pyrrolo[2,3-b]pyridine] | 0.0076 µM | ≥ 5 µM
c1ccc2[nH]c(NCCOc3ccc(Oc4ccc(-c5ccn[nH]5)cc4)cc3)nc2c1 [Example 41, N-(2-{4-[4-(1H-pyrazol-5-yl)phenoxy]phenoxy}ethyl)-1H-benzimidazol-2-amine] | 0.0002 µM | 0.673 µM
Cc1nccn1CCOc1ccc(Oc2ccc(-c3ccn[nH]3)cc2)cc1 [Example 42, 5-(4-{4-[2-(2-methyl-1H-imidazol-1-yl)ethoxy]phenoxy]phenyl)-1H-pyrazole] | 0.0003 µM | 0.172 µM
c1ccc2c(c1)ncn2CCOc1ccc(Oc2ccc(-c3ccn[nH]3)cc2)cc1 [Example 43, 1-(2-{4-[4-(1H-pyrazol-5-yl)phenoxy]phenoxy}ethyl)-1H-benzimidazole] | 0.0013 µM | 1.91 µM
c1ccc2[nH]c(CCOc3ccc(Oc4ccc(-c5ccn[nH]5)cc4)cc3)nc2c1 [Example 45, 2-(2-{4-[4-(1H-pyrazol-5-yl)phenoxy]phenoxy}ethyl)-1H-benzimidazole] | 0.0017 µM | ≥ 5 µM
c1cnc2c(c1)CCC2Oc1ccc(Oc2ccc(-c3ccn[nH]3)cc2)cc1 (stereo not drawn) [Example 47, 7-{4-[4-(1H-pyrazol-5-yl)phenoxy]phenoxy}-6,7-dihydro-5H-cyclopenta[b]pyridine] | 0.0824 µM | ≥ 5 µM
c1cc(-c2ccc(Oc3ccc(OCc4cnc5cc[nH]c5c4)cc3)cc2)[nH]n1 [Example 49, 6-({4-[4-(1H-pyrazol-5-yl)phenoxy]phenoxy}methyl)-1H-pyrrolo[3,2-b]pyridine] | 0.0012 µM | 3.14 µM
c1cnn(CCCOc2ccc(Oc3ccc(-c4ccn[nH]4)cc3)cc2)c1 [Example 50, 1-(3-{4-[4-(1H-pyrazol-5-yl)phenoxy]phenoxy}propyl)-1H-pyrazole] | 0.0012 µM | 2.11 µM
c1ccn2cc(COc3ccc(Oc4ccc(-c5ccn[nH]5)cc4)cc3)nc2c1 [Example 53, 2-({4-[4-(1H-pyrazol-5-yl)phenoxy]phenoxy}methyl)imidazo[1,2-a]pyridine] | 0.0037 µM | ≥ 5 µM
c1cc(-c2ccc(Oc3ccc(OCc4cocn4)cc3)cc2)[nH]n1 [Example 54, 4-({4-[4-(1H-pyrazol-5-yl)phenoxy]phenoxy}methyl)-1,3-oxazole] | 0.0042 µM | ≥ 5 µM
c1cc(-c2ccc(Oc3ccc(OCCc4cn[nH]c4)cc3)cc2)[nH]n1 [Example 55, 4-(2-{4-[4-(1H-pyrazol-5-yl)phenoxy]phenoxy}ethyl)-1H-pyrazole] | 0.007 µM | 2.5 µM
Cn1ncnc1COc1ccc(Oc2ccc(-c3ccn[nH]3)cc2)cc1 [Example 56, 1-methyl-5-({4-[4-(1H-pyrazol-5-yl)phenoxy]phenoxy}methyl)-1H-1,2,4-triazole] | 0.0006 µM | ≥ 5 µM
Cn1nc(COc2ccc(Oc3ccc(-c4ccn[nH]4)cc3)cc2)cc1-c1ccco1 [Example 57, 5-(2-furyl)-1-methyl-3-({4-[4-(1H-pyrazol-5-yl)phenoxy]phenoxy}methyl)-1H-pyrazole] | 0.011 µM | ≥ 5 µM
Cc1nc(COc2ccc(Oc3ccc(-c4ccn[nH]4)cc3)cc2)co1 [Example 60, 2-methyl-4-({4-[4-(1H-pyrazol-5-yl)phenoxy]phenoxy}methyl)-1,3-oxazole] | 0.0039 µM | ≥ 5 µM
c1ccc2sc(COc3ccc(Oc4ccc(-c5ccn[nH]5)cc4)cc3)nc2c1 [Example 64, 2-({4-[4-(1H-pyrazol-5-yl)phenoxy]phenoxy}methyl)-1,3-benzothiazole] | 0.0442 µM | ≥ 5 µM

Other lines, results leading:

IC50 (human LTA4 hydrolase) | IC50 [1] | Structure (SMILES)
0.0039 µM | 1.78 µM | c1cc(COc2ccc(Oc3ccc(-c4ccn[nH]4)cc3)cc2)ccn1 [Example 35, 4-({4-[4-(1H-pyrazol-5-yl)phenoxy]phenoxy}methyl)pyridine]
0.0035 µM | 2.09 µM | CS(=O)(=O)c1ccc(COc2ccc(Oc3ccc(-c4ccn[nH]4)cc3)cc2)cc1 [Example 37, 5-[4-(4-{[4-(methylsulfonyl)benzyl]oxy}phenoxy)phenyl]-1H-pyrazole]
0.0032 µM | 3.12 µM | c1cc(CCOc2ccc(Oc3ccc(-c4ccn[nH]4)cc3)cc2)ccn1 [Example 40, 4-(2-{4-[4-(1H-pyrazol-5-yl)phenoxy]phenoxy}ethyl)pyridine]
0.0011 µM | 0.766 µM | c1cnc(COc2ccc(Oc3ccc(-c4ccn[nH]4)cc3)cc2)cn1 [Example 44, 2-({4-[4-(1H-pyrazol-5-yl)phenoxy]phenoxy}methyl)pyrazine]
0.0061 µM | 4.9 µM | c1cc(-c2ccc(Oc3ccc(OCc4cc[nH]n4)cc3)cc2)[nH]n1 [Example 46, 3-({4-[4-(1H-pyrazol-5-yl)phenoxy]phenoxy}methyl)-1H-pyrazole]
0.0169 µM | 3.92 µM | CC(Oc1ccc(Oc2ccc(-c3ccn[nH]3)cc2)cc1)c1ccncc1 (stereo not drawn) [Example 48, 4-(1-{4-[4-(1H-pyrazol-5-yl)phenoxy]phenoxy}ethyl)pyridine]
0.004 µM | 3.11 µM | CC(CCOc1ccc(Oc2ccc(-c3ccn[nH]3)cc2)cc1)n1cccn1 (stereo not drawn) [Example 51, 1-(1-methyl-3-{4-[4-(1H-pyrazol-5-yl)phenoxy]phenoxy}propyl)-1H-pyrazole]
0.0041 µM | 2.6 µM | c1cc(-c2ccc(Oc3ccc(OCc4ccno4)cc3)cc2)[nH]n1 [Example 52, 5-({4-[4-(1H-pyrazol-5-yl)phenoxy]phenoxy}methyl)isoxazole]
0.044 µM | ≥ 5 µM | C[C@H](Oc1ccc(Oc2ccc(-c3ccn[nH]3)cc2)cc1)c1ccccn1 [Example 58, 2-[(1S)-1-{4-[4-(1H-pyrazol-5-yl)phenoxy]phenoxy}ethyl]pyridine]
0.0427 µM | ≥ 5 µM | C[C@@H](Oc1ccc(Oc2ccc(-c3ccn[nH]3)cc2)cc1)c1ccccn1 [Example 59, 2-[(1R)-1-{4-[4-(1H-pyrazol-5-yl)phenoxy]phenoxy}ethyl]pyridine]
0.0014 µM | 1.12 µM | Cn1nccc1COc1ccc(Oc2ccc(-c3ccn[nH]3)cc2)cc1 [Example 61, 1-methyl-5-({4-[4-(1H-pyrazol-5-yl)phenoxy]phenoxy}methyl)-1H-pyrazole]
0.142 µM | ≥ 5 µM | c1ccc(COc2ccc(Oc3ccc(-c4ccn[nH]4)cc3)cc2)cc1 [Example 62, 5-{4-[4-(benzyloxy)phenoxy]phenyl}-1H-pyrazole]
0.0529 µM | ≥ 5 µM | c1cc(-c2ccc(Oc3ccc(OCc4ccoc4)cc3)cc2)[nH]n1 [Example 63, 5-{4-[4-(3-furylmethoxy)phenoxy]phenyl}-1H-pyrazole]
